In the experiment the target is PI3Kδ (p110δ/p85α) (Homo sapiens (Human), UniProt O00329). In words: PI3Kδ scintillation proximity assay (Example A3). It counts as biochemical. The following applies: 20 μM ATP, 20 μM PIP2, 4 nM PI3Kδ; read-out: PI3Kδ SPA IC50. The procedure, abridged:
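IC50 derived by fitting percent control activity against log inhibitor concentration. Radiolabelled product was measured by scintillation counting on WGA SPA beads after overnight shaking. The kinase reaction used 4 nM p110δ/p85α, 20 μM ATP (with [γ-33P]ATP) and 20 μM PIP2 at pH 6.7 and room temperature, with 0.5% DMSO final.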

This note sets out measurements from US9707233B2, “Heterocyclylamines as PI3K inhibitors” (Incyte Corporation, priority 2011, dated 2017).

Structures can show the parent of a compound that is named as a salt.

Chain of PI3Kδ (p110δ/p85α) (O00329 whole entry): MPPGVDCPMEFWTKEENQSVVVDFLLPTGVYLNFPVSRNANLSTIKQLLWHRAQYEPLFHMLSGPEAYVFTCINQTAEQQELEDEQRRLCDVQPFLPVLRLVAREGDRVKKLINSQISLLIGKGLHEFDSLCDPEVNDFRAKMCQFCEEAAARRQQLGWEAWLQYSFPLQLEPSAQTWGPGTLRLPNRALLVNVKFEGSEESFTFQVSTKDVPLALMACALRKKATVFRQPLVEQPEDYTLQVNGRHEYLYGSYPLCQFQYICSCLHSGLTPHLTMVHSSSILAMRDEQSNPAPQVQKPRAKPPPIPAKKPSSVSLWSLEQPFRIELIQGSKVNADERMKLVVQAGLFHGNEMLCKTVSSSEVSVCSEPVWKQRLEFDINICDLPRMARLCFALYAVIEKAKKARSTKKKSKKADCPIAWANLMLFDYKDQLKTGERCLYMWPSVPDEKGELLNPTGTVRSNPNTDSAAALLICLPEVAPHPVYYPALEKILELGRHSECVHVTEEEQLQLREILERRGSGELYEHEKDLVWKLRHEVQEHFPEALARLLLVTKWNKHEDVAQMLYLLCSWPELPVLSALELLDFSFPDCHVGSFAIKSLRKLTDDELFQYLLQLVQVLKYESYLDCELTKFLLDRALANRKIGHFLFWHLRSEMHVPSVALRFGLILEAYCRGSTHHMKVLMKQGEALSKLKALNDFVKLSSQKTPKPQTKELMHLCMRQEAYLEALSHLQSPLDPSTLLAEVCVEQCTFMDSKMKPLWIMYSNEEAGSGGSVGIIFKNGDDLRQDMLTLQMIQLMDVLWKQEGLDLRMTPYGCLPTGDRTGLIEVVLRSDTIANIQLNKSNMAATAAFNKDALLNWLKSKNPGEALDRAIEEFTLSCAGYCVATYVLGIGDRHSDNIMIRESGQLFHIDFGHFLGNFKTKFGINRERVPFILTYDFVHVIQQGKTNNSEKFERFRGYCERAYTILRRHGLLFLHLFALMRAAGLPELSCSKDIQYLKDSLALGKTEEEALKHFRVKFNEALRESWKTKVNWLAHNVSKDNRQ
Chain of PI3Kδ (p110δ/p85α) (P27986 whole entry partner): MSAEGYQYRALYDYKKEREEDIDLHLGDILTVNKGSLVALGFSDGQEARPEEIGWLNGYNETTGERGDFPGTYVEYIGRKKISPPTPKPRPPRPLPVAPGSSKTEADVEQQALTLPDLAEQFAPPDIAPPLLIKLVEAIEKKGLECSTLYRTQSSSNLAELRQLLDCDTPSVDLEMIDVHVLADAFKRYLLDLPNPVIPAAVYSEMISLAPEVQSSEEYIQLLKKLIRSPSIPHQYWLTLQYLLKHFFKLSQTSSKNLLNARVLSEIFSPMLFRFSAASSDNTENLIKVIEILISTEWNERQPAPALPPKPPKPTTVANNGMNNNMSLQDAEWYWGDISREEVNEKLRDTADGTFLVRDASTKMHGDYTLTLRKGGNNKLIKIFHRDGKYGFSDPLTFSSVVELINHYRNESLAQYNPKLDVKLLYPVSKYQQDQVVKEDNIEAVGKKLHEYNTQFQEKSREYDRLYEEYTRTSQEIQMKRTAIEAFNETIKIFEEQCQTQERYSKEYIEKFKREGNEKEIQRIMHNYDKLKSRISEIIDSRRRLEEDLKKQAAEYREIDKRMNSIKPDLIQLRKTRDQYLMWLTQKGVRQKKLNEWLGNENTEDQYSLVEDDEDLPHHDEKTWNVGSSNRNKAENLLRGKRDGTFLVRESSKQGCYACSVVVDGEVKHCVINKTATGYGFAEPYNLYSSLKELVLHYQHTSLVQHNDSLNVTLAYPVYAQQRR

As to `CCOc1c(C(C)n2nc(C)c3c(N)ncnc32)cc(C)c(C#N)c1C1CN(CC(C)(C)O)C1` (single isomer, unassigned) [Example 321, 4-[1-(4-amino-3-methyl-1H-pyrazolo[3,4-d]pyrimidin-1-yl)ethyl]-3-ethoxy-2-[1-(2-hydroxy-2-methylpropyl)azetidin-3-yl]-6-methylbenzonitrile], the IC50 is ≤ 10 nM.

As to `CCOc1c(C(C)n2nc(C)c3c(N)ncnc32)cc(Cl)c(C#N)c1C1CN(CC(C)(C)O)C1` (stereo not shown) [Example 222, 4-[1-(4-Amino-3-methyl-1H-pyrazolo[3,4-d]pyrimidin-1-yl)ethyl]-6-chloro-3-ethoxy-2-[1-(2-hydroxy-2-methylpropyl)azetidin-3-yl]benzonitrile], the IC50 is ≤ 10 nM.

In the case of `CCOc1c(C(C)n2nc(C)c3c(N)ncnc32)cc(Cl)c(C#N)c1C1CN(C(=O)NC(C)(C)C)C1` (single isomer, unassigned) [Example 255, 3-{3-[1-(4-Amino-3-methyl-1H-pyrazolo[3,4-d]pyrimidin-1-yl)ethyl]-5-chloro-6-cyano-2-ethoxyphenyl}-N-(tert-butyl)azetidine-1-carboxamide], the IC50 is ≤ 10 nM.

Consider `CCOc1c(C(C)n2nc(C)c3c(N)ncnc32)cc(Cl)c(C#N)c1C1CN(C2CCOC2)C1` (single isomer, unassigned) [Example 227, 4-[1-(4-Amino-3-methyl-1H-pyrazolo[3,4-d]pyrimidin-1-yl)ethyl]-6-chloro-3-ethoxy-2-[1-(tetrahydrofuran-3-yl)azetidin-3-yl]benzonitrile], for which the IC50 is ≤ 10 nM.

In the case of `COc1c(C(C)n2nc(C)c3c(N)ncnc32)cc(Cl)c(Cl)c1C1CN(CC(C)(C)O)C1` (single isomer, unassigned) [Example 303, 1-(3-{3-[1-(4-Amino-3-methyl-1H-pyrazolo[3,4-d]pyrimidin-1-yl)ethyl]-5,6-dichloro-2-methoxyphenyl}azetidin-1-yl)-2-methylpropan-2-ol], the IC50 is ≤ 10 nM.

Regarding `COc1c(C(C)n2nc(C)c3c(N)ncnc32)cc(Cl)c(C#N)c1C1CN(C(C)C)C1` (stereo not shown) [Example 264, 4-[1-(4-Amino-3-methyl-1H-pyrazolo[3,4-d]pyrimidin-1-yl)ethyl]-6-chloro-2-(1-isopropylazetidin-3-yl)-3-methoxybenzonitrile], the IC50 was ≤ 10 nM.

For the compound `CCOc1c(C(C)n2nc(C)c3c(N)ncnc32)cc(Cl)c(F)c1C1CNC(=O)C1` (single isomer, unassigned) [Example 346, 4-{3-[1-(4-amino-3-methyl-1H-pyrazolo[3,4-d]pyrimidin-1-yl)ethyl]-5-chloro-2-ethoxy-6-fluorophenyl}pyrrolidin-2-one], the IC50 was ≤ 10 nM.

In the case of `CCOc1c(C(C)n2nc(C)c3c(N)ncnc32)cc(Cl)c(C#N)c1C1CN(C(=O)C(C)(C)C)C1` (single isomer, unassigned) [Example 245, 4-[1-(4-Amino-3-methyl-1H-pyrazolo[3,4-d]pyrimidin-1-yl)ethyl]-6-chloro-2-[1-(2,2-dimethylpropanoyl)azetidin-3-yl]-3-ethoxybenzonitrile], the IC50 is ≤ 10 nM.

As to `CCOc1c(C(C)n2nc(C)c3c(N)ncnc32)cc(Cl)c(F)c1C1CNC(=O)C1` (single isomer, unassigned) [Example 348, 4-{3-[1-(4-amino-3-methyl-1H-pyrazolo[3,4-d]pyrimidin-1-yl)ethyl]-5-chloro-2-ethoxy-6-fluorophenyl}pyrrolidin-2-one], the IC50 lay within 50 to 200 nM.

In the case of `CCOc1c(C(C)n2nc(C)c3c(N)ncnc32)cc(Cl)c(C#N)c1C1CNC(=O)O1` (stereo not drawn) [323 (2nd peak), 4-[1-(4-amino-3-methyl-1H-pyrazolo[3,4-d]pyrimidin-1-yl)ethyl]-6-chloro-3-ethoxy-2-(2-oxo-1,3-oxazolidin-5-yl)benzonitrile], the 50% inhibitory concentration (IC50) was ≤ 10 nM.

As to `COc1c(C(C)n2nc(C)c3c(N)ncnc32)cc(Cl)c(C#N)c1C1CN(CC2CC2)C1` (single isomer, unassigned) [Example 266, 4-[1-(4-Amino-3-methyl-1H-pyrazolo[3,4-d]pyrimidin-1-yl)ethyl]-6-chloro-2-[1-(cyclopropylmethyl)azetidin-3-yl]-3-methoxybenzonitrile], the IC50 is ≤ 10 nM.

Take `COc1c(C(C)n2nc(C)c3c(N)ncnc32)cc(Cl)c(C#N)c1C1CN(CC(C)(C)O)C1` (stereo not shown) [Example 271, 4-[1-(4-Amino-3-methyl-1H-pyrazolo[3,4-d]pyrimidin-1-yl)ethyl]-6-chloro-2-[1-(2-hydroxy-2-methylpropyl)azetidin-3-yl]-3-methoxybenzonitrile]: the IC50 is ≤ 10 nM.

As to `CCOc1c(C(C)n2nc(C)c3c(N)ncnc32)cc(Cl)c(C#N)c1C1CN(C(C)(C)C(=O)NC)C1` (single isomer, unassigned) [Example 240, 2-(3-{3-[1-(4-Amino-3-methyl-1H-pyrazolo[3,4-d]pyrimidin-1-yl)ethyl]-5-chloro-6-cyano-2-ethoxyphenyl}azetidin-1-yl)-N,2-dimethylpropanamide], the IC50 was ≤ 10 nM.

Take `COc1c(C(C)n2nc(C)c3c(N)ncnc32)cc(Cl)c(C)c1CCC(=O)N(C)C` (single isomer, unassigned) [Example 180, 3-(3-(1-(4-Amino-3-methyl-1H-pyrazolo[3,4-d]pyrimidin-1-yl)ethyl)-5-chloro-2-methoxy-6-methylphenyl)-N,N-dimethylpropanamide]: the IC50 is ≤ 10 nM.

For the compound `CCOc1c(C(C)n2nc(C(F)F)c3c(N)ncnc32)cc(Cl)c(F)c1C1CN(CC(C)(C)O)C1` (racemic) [Example 153, 1-[3-(3-{1-[4-Amino-3-(difluoromethyl)-1H-pyrazolo[3,4-d]pyrimidin-1-yl]ethyl}-5-chloro-2-ethoxy-6-fluorophenyl)azetidin-1-yl]-2-methylpropan-2-ol], the IC50 was ≤ 10 nM.

Regarding `COc1c(C(C)n2nc(C)c3c(N)ncnc32)cc(Cl)c(C#N)c1C1CN(C(=O)C(C)C)C1` (single isomer, unassigned) [Example 283, 4-[1-(4-Amino-3-methyl-1H-pyrazolo[3,4-d]pyrimidin-1-yl)ethyl]-6-chloro-2-(1-isobutyrylazetidin-3-yl)-3-methoxybenzonitrile], the IC50 is ≤ 10 nM.

In the case of `CCOc1c(C(C)n2nc(-c3cccc(F)c3)c3c(N)ncnc32)cc(Cl)c(C)c1-c1ccc(C(=O)N(C)C)nc1` (racemic) [Example 47, 5-(3-{1-[4-amino-3-(3-fluorophenyl)-1H-pyrazolo[3,4-d]pyrimidin-1-yl]ethyl}-5-chloro-2-ethoxy-6-methylphenyl)-N,N-dimethylpyridine-2-carboxamide bis(trifluoroacetate)], the IC50 is ≤ 10 nM.

On to `CCOc1c(C(C)n2nc(C)c3c(N)ncnc32)cc(C)c(C#N)c1C1CN(CCO)C1` (single isomer, unassigned) [Example 327, 4-[-1-(4-amino-3-methyl-1H-pyrazolo[3,4-d]pyrimidin-1-yl)ethyl]-3-ethoxy-2-[1-(2-hydroxyethyl)azetidin-3-yl]-6-methylbenzonitrile], for which the IC50 was ≤ 10 nM.

For the compound `COc1c(C(C)n2nc(C)c3c(N)ncnc32)cc(Cl)c(C)c1-c1ccc(C(=O)N(C)C)c(F)c1` (single isomer, unassigned) [Example 21, 3′-[1-(4-Amino-3-methyl-1H-pyrazolo[3,4-d]pyrimidin-1-yl)ethyl]-5′-chloro-3-fluoro-2′-methoxy-N,N,6′-trimethylbiphenyl-4-carboxamide trifluoroacetate], the IC50 is ≤ 10 nM.

As for `COc1c(C(C)n2nc(C)c3c(N)ncnc32)cc(Cl)c(C)c1-c1cncc(C(=O)N2CCC(O)CC2)c1` (single isomer, unassigned) [Example 176, 1-[(5-{3-[1-(4-amino-3-methyl-1H-pyrazolo[3,4-d]pyrimidin-1-yl)ethyl]-5-chloro-2-methoxy-6-methylphenyl}pyridin-3-yl)carbonyl]piperidin-4-ol], the 50% inhibitory concentration (IC50) is ≤ 10 nM.

For `COc1c(C(C)n2nc(C)c3c(N)ncnc32)cc(Cl)c(C)c1-c1cncnc1` (single isomer, unassigned) [Example 168, 1-(1-(5-chloro-2-methoxy-4-methyl-3-(pyrimidin-5-yl)phenyl)ethyl)-3-methyl-1H-pyrazolo[3,4-d]pyrimidin-4-amine], the 50% inhibitory concentration (IC50) was ≤ 10 nM.

Regarding `COc1c(C(C)n2nc(C)c3c(N)ncnc32)cc(Cl)c(Cl)c1C1CN(C2COC2)C1` (single isomer, unassigned) [Example 304, 1-{1-[4,5-Dichloro-2-methoxy-3-(1-oxetan-3-ylazetidin-3-yl)phenyl]ethyl}-3-methyl-1H-pyrazolo[3,4-d]pyrimidin-4-amine], the IC50 is ≤ 10 nM.

`CCNC(=O)N1CC(c2c(C#N)c(Cl)cc(C(C)n3nc(C)c4c(N)ncnc43)c2OCC)C1` (single isomer, unassigned) [Example 258, 3-{3-[1-(4-Amino-3-methyl-1H-pyrazolo[3,4-d]pyrimidin-1-yl)ethyl]-5-chloro-6-cyano-2-ethoxyphenyl}-N-ethylazetidine-1-carboxamide]: the IC50 was ≤ 10 nM.

For `CCOc1c(C(C)n2nc(C)c3c(N)ncnc32)cc(Cl)c(F)c1C1CNC(=O)O1` (single isomer, unassigned) [Example 358, 5-{3-[1-(4-amino-3-methyl-1H-pyrazolo[3,4-d]pyrimidin-1-yl)ethyl]-5-chloro-2-ethoxy-6-fluorophenyl}-1,3-oxazolidin-2-one], the IC50 was > 500 nM.

As to `CCOc1c(C(C)n2nc(C)c3c(N)ncnc32)cc(Cl)c(C)c1-c1ccnc(C(=O)N(C)CCO)c1` (single isomer, unassigned) [Example 202, 4-(3-(1-(4-amino-3-methyl-1H-pyrazolo[3,4-d]pyrimidin-1-yl)ethyl)-5-chloro-2-ethoxy-6-methylphenyl)-N-(2-hydroxyethyl)-N-methylpicolinamide], the IC50 is ≤ 10 nM.
